In US12188936B2, “Biomarkers and therapeutics for endocrine therapy resistance” (LUNELLA BIOTECH, INC., priority 2018, dated 2025):

How the values were obtained:
MCF7-Y537S cells [1] = experiment: SRB survival assay (cell viability), 5-day exposure; format: cell-based, human; details: 4-OHT 1 μM, 5 days, vs control
Excerpt: For FIG. 1, ** indicates p<0.005.

MCF7-Y537S cells [2] = experiment: Mammosphere formation assay; format: cell-based, human; details: 72-hour pre-treatment with 1 μM, 5 days culture
Experimental: (§1) All of the transfected MCF7 cell lines were grown as mammospheres. […] In these figures, ** indicates p<0.005; and ns indicates not significant as evaluated by Student's t test.
(§2) MCF7 3D-mammosphere formation: A single cell suspension was prepared using enzymatic (lx Trypsin-EDTA, Sigma Aldrich, #T3924), and manual disaggregation (25 gauge needle). Cells were plated at a density of 500 cells/cm^2 in mammosphere medium (DMEM-F12+B27+20 ng/ml EGF+PenStrep) under non-adherent conditions, in culture dishes pre-coated with (2-hydroxyethylmethacrylate) (poly-HEMA, Sigma, #P3932), called “mammosphere plates.” Then, the cells were pre-treated for 72 hours with 1 μM of 4-OH-Tamoxifen. Vehicle alone (DMSO) control cells were processed in parallel. Afterwards, they were trypsined and seeded in mammosphere plates. Cells were grown for 5 days and maintained in a humidified incubator at 37° C. After 5 days of culture, 3D-spheres>50 μm were counted using an eye piece (“graticule”), and the percentage of cells plated which formed spheres was calculated and is referred to as percent mammosphere formation, and was normalized to one (1=100% MSF).

[3] = system: transfected MCF7 cell lines (other than Y537S and ESR1 WT); experiment: Mammosphere formation assay; format: cell-based, human; details: all transfected MCF7 cell lines except Y537S and ESR1 (WT), 72-hour pre-treatment with 1 μM, 5 days culture
Experimental: as §1, §2

MCF7-Y537S cells [4] = experiment: Annexin-V analysis (apoptosis, FACS); format: cell-based, human; details: 1 μM for 72 hours
Excerpt: (§3) One mechanism by which the Y537S mutation may promote mammosphere formation in the presence of Tamoxifen is by conferring resistance to apoptosis. Staining with annexin V may be used to detect apoptotic cells by its ability to bind to phosphatidylserine, a marker of apoptosis when it is on the outer leaflet of the plasma membrane. Increases in annexin V staining indicates an increase in apoptosis.
(§4) The data in FIGS. 4A-4C were obtained as follows. The transduced MCF7 cell lines were all plated in 6-well plates. On the next day, the cells were treated with 4-OHT (1 μM) for 72 hours. MCF7-EV cells were processed in parallel, as a negative control. […] For the data in these drawings, * indicates p<0.05.
(§5) Annexin-V analysis: Cell death was quantified by flow cytometry using propidium iodide (PI) and Annexin V-FITC (20). Briefly, 1.5×10^5 all the transfected cells were plated in 6 multi-well plate in complete media supplemented with 10% HiFBS. The next day, cells were treated with 1 μM of 4-OH-Tamoxifen (4-OHT) for 48 h and 72 h. Vehicle alone (DMSO) for control cells were processed in parallel. After 48 hours, cells were harvested and washed in cold phosphate-buffered saline (PBS). […] Cells were then analyzed by flow cytometry using a PE Texas Red signal detector for PI staining and a FITC signal detector to detect Annexin V binding. 30,000 events were recorded by FACS using Fortessa BD. […]

[5] = system: transfected MCF7 cell lines; experiment: Annexin-V analysis (apoptosis, FACS); format: cell-based, human; details: 1 μM for 72 hours
Excerpt: as §3, §4, §5

[6] = system: other MCF7 cell lines (ESR1 WT, Y537N, ErbB2, EV); details: 4-OHT 1 μM, 5 days
Experimental: To directly determine the validity of our model system, MCF7-Y537S cells were cultured for 5 days in the presence of Tamoxifen (1 μM) to assess its effect on cell viability. […] MCF7 cells were stably-transduced with either ESR1 (WT, Y537S, or Y537N) or ErbB2 (HER2), to genetically create a clinically relevant model of endocrine therapy resistance. Vector alone control MCF7 cells were generated in parallel (empty vector; EV; p-EV-105-puroR), as a negative control. […] The SRB assay was performed as a measure of cell viability and the experiment was carried out for 5 days.
Sulfo-rhodamine B (SRB) assay: SRB measures total biomass by staining cellular proteins.

## CC/C(=C(\c1ccc(O)cc1)c1ccc(OCCN(C)C)cc1)c1ccccc1 [4-OHT, 4-OH-Tamoxifen]
MCF7-Y537S cells [1]
  cell viability (SRB survival): clearly show resistance
MCF7-Y537S cells [2]
  mammosphere formation: remain largely unaffected
[3]
  mammosphere formation efficiency (MFE): inhibited mammosphere formation efficiency
MCF7-Y537S cells [4]
  pro-apoptotic effect (annexin V levels): specifically resistant to the pro-apoptotic effects
[5]
  annexin V levels: increased in all transfected cell lines
[6]
  cell viability (SRB survival): significant inhibitory effects
